Measured values published in ChEMBL document CHEMBL1150003, “Chiral carbocylic nucleosides: The synthesis and antiviral activity of 4-hydroxy and 4-fluorocarbocyclic - 2- deoxyguanosines” (1993).
≈ marks a conversion by molar mass, not a printed value.

Assays:
Assay type in all cases: functional
Conditions in all cases: Chlorocebus sabaeus, read-out: ID50 (the source's name)
Vero [1] = assay: Tested for the concentration required to inhibit HSV-1 strain KOS cytopathic effect by 50% in vero cells
Vero [2] = assay: Tested for the concentration required to inhibit HSV-2 strain 186 cytopathic effect by 50% in vero cells
Vero [3] = assay: Tested for the cytotoxic effect in vero cell monolayers after incubation for 48 hr at 37 degree Centigrade

| Structure (SMILES) | IC50 (Vero [1]) | IC50 (Vero [2]) | IC50 (Vero [3]) |
| --- | --- | --- | --- |
| Nc1nc(O)c2ncn([C@H]3C[C@H](O)[C@](O)(CO)C3)c2n1 | 70 µg/mL (≈ 249 µM) | 65 µg/mL (≈ 231 µM) | > 300 µg/mL |
| Nc1nc2c(ncn2COCCO)c(=O)[nH]1 [ACYCLOVIR] | 0.2 µg/mL (≈ 0.888 µM) | 0.6 µg/mL (≈ 2.66 µM) | > 300 µg/mL |
| Nc1nc(O)c2ncn([C@@H]3C[C@H](CO)[C@@H](O)C3)c2n1 | 0.06 µg/mL (≈ 0.226 µM) | 0.44 µg/mL (≈ 1.66 µM) | 300 µg/mL (≈ 1130 µM) |
| Nc1nc(O)c2ncn([C@H]3C[C@H](O)[C@@](O)(CO)C3)c2n1 | 0.15 µg/mL (≈ 0.533 µM) | 0.26 µg/mL (≈ 0.924 µM) | > 900 µg/mL |
| Nc1nc(O)c2ncn(C3CC(O)C(F)(CO)C3)c2n1 (stereo not given) | 0.15 µg/mL (≈ 0.53 µM) | 0.36 µg/mL (≈ 1.27 µM) | 100 µg/mL (≈ 353 µM) |
